Literature values in patent US20040043030A1, “Polymeric delivery systems” (Immunomedics, Inc., priority 2001, published 2004).

Legend:
[1] = system: tumor cells; details: relative to doxorubicin
[2] = molecular target: T1, human beta-D-glucuronidase (Homo sapiens, UniProt P08236); details: Arcamone, Cancer Res., 45:5995, 1985
T1 sequence (P08236 23-651): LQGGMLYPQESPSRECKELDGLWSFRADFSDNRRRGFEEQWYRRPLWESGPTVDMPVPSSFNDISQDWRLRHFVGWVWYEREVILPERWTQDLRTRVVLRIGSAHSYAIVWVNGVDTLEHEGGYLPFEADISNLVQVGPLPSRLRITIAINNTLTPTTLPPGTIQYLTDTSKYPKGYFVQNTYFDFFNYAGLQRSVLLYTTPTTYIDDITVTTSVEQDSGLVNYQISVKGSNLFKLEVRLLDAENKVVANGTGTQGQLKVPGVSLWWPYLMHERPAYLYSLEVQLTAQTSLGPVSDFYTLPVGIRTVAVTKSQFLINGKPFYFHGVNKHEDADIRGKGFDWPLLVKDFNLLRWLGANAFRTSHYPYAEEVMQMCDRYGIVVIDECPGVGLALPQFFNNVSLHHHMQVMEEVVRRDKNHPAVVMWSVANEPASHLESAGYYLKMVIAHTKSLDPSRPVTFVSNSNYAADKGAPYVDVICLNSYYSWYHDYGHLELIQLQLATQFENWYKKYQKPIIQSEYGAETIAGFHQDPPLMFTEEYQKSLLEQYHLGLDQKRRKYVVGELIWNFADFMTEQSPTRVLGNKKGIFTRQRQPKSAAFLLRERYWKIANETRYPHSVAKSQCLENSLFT

| SMILES | more toxic to tumor cells than doxorubicin itself [1] | substrate for human beta-D-glucuronidase [2] |
| --- | --- | --- |
| COc1cccc2c1C(=O)c1c(O)c3c(c(O)c1C2=O)C[C@@](O)(C(=O)CO)C[C@@H]3O[C@H]1C[C@H](N2C=CCC2)[C@H](O)[C@H](C)O1 [Example 2-PDOX, 2-pyrrolinodoxorubicin] | 100-1000 | – |
| COc1cccc2c1C(=O)c1c(O)c3c(c(O)c1C2=O)C[C@@](O)(C(=O)CO)C[C@@H]3O[C@H]1C[C@H](N)[C@@H](O)[C@H](C)O1 [epirubicin] | – | substrate |
